Measured values from publication PMC4900628, “Critical Evaluation of P2X7 Receptor Antagonists in Selected Seizure Models” (PLoS ONE, 2016).

Assays:
[1] = system: PTZ-induced seizures in fully PTZ-kindled rats; assay: PTZ-induced seizures in fully kindled rats; assay type: in vivo; conditions: for effect on mean seizure stage in fully kindled rats: TIIAS 30 mg/kg i.p., BBG 50 mg/kg i.p., AFC 25 mg/kg i.p., JNJ 30 mg/kg s.c., acute
From the text: Results were expressed as mean seizure stages of a tested group in which the seizure behaviour after vehicle treatment (vehicle seizure stage) and after compound treatment (compound seizure stage), examined 3-4 days later, was matched. For comparison, the effectiveness of two antiepileptic drugs (carbamazepine and valproate) was also investigated. […] Chemicals, Toronto, Canada) was slowly added. The pH was adjusted with 1N NaOH (similar amount of NaOH as HCl), all with continuous stirring. […] The drug solutions or suspensions were prepared immediately before use; all doses refer to the salts. Animals in the control group received equivalent volumes of the vehicle (in mice always 10 ml/kg, in rats 1 ml/kg [JNJ], 3 ml/kg [AFC] or 4 ml/kg [BBG, TIIAS], depending on the solubility of the different compounds). Doses and peak time effects were selected on the basis of effective doses from corresponding in vivo studies in the literature: BBG (e.g.), tanshinone IIA (e.g.) and from manufacturer's experimental data: AFC, JNJ (see, [80]). Data were analysed using SigmaPlot (vers. 12.0, Systat Software, Erkrath, Germany) and SPSS (IBM SPSS Statistics 20, […], Germany), respectively. Results are expressed as mean ± SEM. […] In the MES-T, the current intensity inducing tonic hindlimb extensions in 50% of the mice (CC50 values with confidence limits for 95% probability) and the statistical significance was calculated using Probit analysis (SPSS). […] In the PTZ-T, the number of animals in the group with clonic seizures and the latency time were analysed using Fisher's exact probability test and the Mann-Whitney rank sum test, respectively. For multiple comparisons of the latency time a one-way ANOVA with the Holm-Sidak post hoc test was used. The influence of AFC on the plasma and brain concentrations of the antiepileptic drugs was statistical compared using the same procedure. In the PTZ-kindling model, the mean seizure stage within a group was calculated in relation to the number of PTZ-injections. Statistical comparison between vehicle- and compound-treated groups in this model was performed with two-way repeated measures ANOVA, followed by the Holm-Sidak post hoc test. The mean number of PTZ-injections needed to produce the first generalized seizure (≥ stage 3 convulsions) in the vehicle- versus compound-treated groups was statistically compared using a Mann-Whitney rank sum test. In fully kindled rats, the calculated mean seizure stage within a group after vehicle- and compound-treatment were compared using a paired t-test. P < 0.05 was the accepted minimum level of significance.

[2] = system: PTZ-induced generalized clonic seizures; assay: Pentylenetetrazol seizure threshold test (PTZ-T); assay type: in vivo; conditions: for Cases of death (within 30 min) / Latency to the first gen. Clonus / Latency to the first gen. clonus (% of control) / latency to the onset of the first clonic seizures at higher doses / Latency to the first gen. Clonus (% control): mice; for Cases of death (within 30 min): n=12; for Latency to the first gen. Clonus: mean ± SEM; for latency to the onset of the first clonic seizures at higher doses: compounds alone, PTZ 87 mg/kg s.c.
Method: Unrestrained mice, placed in separate full-view Plexiglas cages, were injected with the convulsant drug PTZ, a non-competitive GABAA receptor antagonist, at a dose of 87 mg/kg s.c. in the neck and the appearance of the first generalized clonus (repeated clonic seizures of the fore- and hindlimbs lasting ≥3 s with an accompanying loss of righting reflex) was recorded during individual observation for 30 min (see [69]). […] Group sizes of 12 mice were used in all experiments. Control groups, which received vehicle, were tested together with the compound-treated group on the same experimental day. The number of animals in the group with a generalized clonic seizure and the latency time to its onset were analysed for statistical significance. In the absence of seizures within 30 min, the latency was taken as 1800 s.
For the seizure tests (MES-T, PTZ-T, PTZ-kindling), BBG and TIIAS was dissolved in polyethylene glycol (PEG BioUltra, 400, Sigma-Aldrich), diluted to 20% with aqua (aqua ad iniectabilia, Braun, Melsungen, Germany). AFC was solubilized in ≥97% N,N-dimethylacetamide (DMA, Sigma-Aldrich), vortexed and diluted with 45% 2-hydroxypropyl-ß-cyclodextrin (ß-CD, Sigma-Aldrich) (final ratio of the vehicle 1:9). JNJ-47965567 was solubilized in two equivalents of 1N HCl, vortexed and sonicated (until the compound was mostly diluted) and then 30% of sulfobutylether-ß-cyclodextrin (SBE-ß-CD, Toronto Res. Chemicals, Toronto, Canada) was slowly added. The pH was adjusted with 1N NaOH (similar amount of NaOH as HCl), all with continuous stirring. PTZ was dissolved in 0.9% NaCl-solution, carbamazepine, ethosuximide and Ca-valproate were administered in a 2% (w/v) suspension of hydroxyethylcellulose. The drug solutions or suspensions were prepared immediately before use; all doses refer to the salts. Animals in the control group received equivalent volumes of the vehicle (in mice always 10 ml/kg, in rats 1 ml/kg [JNJ], 3 ml/kg [AFC] or 4 ml/kg [BBG, TIIAS], depending on the solubility of the different compounds). Doses and peak time effects were selected on the basis of effective doses from corresponding in vivo studies in the literature: BBG (e.g.), tanshinone IIA (e.g.) and from manufacturer’s experimental data: AFC, JNJ (see, [80]).
Data were analysed using SigmaPlot (vers. 12.0, Systat Software, Erkrath, Germany) and SPSS (IBM SPSS Statistics 20, Ehningen, Germany), respectively. Results are expressed as mean ± SEM. In the fluorometric Ca^2+ assays, concentration-response curves were fitted by using a 4-parameter logistic function (Hill slope, Emin, Emax, IC50). […] In the MES-T, the current intensity inducing tonic hindlimb extensions in 50% of the mice (CC50 values with confidence limits for 95% probability) and the statistical significance was calculated using Probit analysis (SPSS). In the case of multiple comparisons between different groups α-correction was performed so that only differences with a P value of < 0.01 were considered significant. In the PTZ-T, the number of animals in the group with clonic seizures and the latency time were analysed using Fisher's exact probability test and the Mann-Whitney rank sum test, respectively. For multiple comparisons of the latency time a one-way ANOVA with the Holm-Sidak post hoc test was used. The influence of AFC on the plasma and brain concentrations of the antiepileptic drugs was statistical compared using the same procedure. In the PTZ-kindling model, the mean seizure stage within a group was calculated in relation to the number of PTZ-injections. Statistical comparison between vehicle- and compound-treated groups in this model was performed with two-way repeated measures ANOVA, followed by the Holm-Sidak post hoc test. The mean number of PTZ-injections needed to produce the first generalized seizure (≥ stage 3 convulsions) in the vehicle- versus compound-treated groups was statistically compared using a Mann-Whitney rank sum test.

[3] = 50 mg/kg i.p. 45 min before PTZ 87 mg/kg s.c.
[4] = series JNJ-47965567 15 mg/kg and/or ethosuximide 100 mg/kg i.p. 30 min before PTZ 87 mg/kg s.c.
[5] = series JNJ-47965567 30 mg/kg and/or ethosuximide 100 mg/kg i.p. 30 min before PTZ 87 mg/kg s.c.
[6] = series AFC-5128 25 mg/kg and/or ethosuximide 100 mg/kg, all i.p. 30 min before PTZ 87 mg/kg s.c.
[7] = series AFC-5128 50 mg/kg and/or ethosuximide 100 mg/kg, all i.p. 30 min before PTZ 87 mg/kg s.c.
[8] = series JNJ-47965567 15 mg/kg and/or ethosuximide 100 mg/kg i.p. 30 min before PTZ, control 4.74 ± 0.64 min
[9] = series JNJ-47965567 15 mg/kg and/or ethosuximide 100 mg/kg, all i.p. 30 min before PTZ 87 mg/kg s.c.
[10] = series JNJ-47965567 30 mg/kg and/or ethosuximide 100 mg/kg i.p. 30 min before PTZ, control 6.14 ± 1.34 min
[11] = series JNJ-47965567 30 mg/kg and/or ethosuximide 100 mg/kg, all i.p. 30 min before PTZ 87 mg/kg s.c.
[12] = 15 mg/kg i.p. 30 min before PTZ 87 mg/kg s.c.
[13] = 30 mg/kg i.p. 30 min before PTZ 87 mg/kg s.c.

For CCOc1ccc(Nc2ccc(/C(=C3C=C/C(=[N+](/CC)Cc4cccc(S(=O)(=O)[O-])c4)C=C/3C)c3ccc(N(CC)Cc4cccc(S(=O)(=O)O)c4)cc3C)cc2)cc1 [Brilliant Blue G], the “effect on mean seizure stage in fully kindled rats” value [1] was “tendency to reduce the mean seizure stage”, the “# of mice/ with seizure” value [2, 3] was 12/10 and the “Cases of death (within 30 min)” value [2, 3] was 2. For the same molecule, the “Latency to the first gen. Clonus” value ([2]; 50 mg/kg i.p. 45 min before PTZ 87 mg/kg s.c., P < 0.05) was 13.91 ± 2.38 min, the “Latency to the first gen. clonus (% of control)” value (“Latency … (% of control)” for short) ([2]; 50 mg/kg i.p. 45 min before PTZ 87 mg/kg s.c., vehicle 6.77 ± 2.23 min) was 205.5 ± 35.2% and the “latency to the onset of the first clonic seizures at higher doses” value [2] was “tended to increase the latency”.
With CCC1(C)CC(=O)NC1=O (centres unmarked) [Ethosuximide, ethosuximide] the “Cases of death (within 30 min)” value ([2]; series AFC-5128 25 mg/kg and/or ethosuximide 100 mg/kg i.p. 30 min before PTZ 87 mg/kg s.c.) was 1, the “Cases of death (within 30 min)” value ([2]; series AFC-5128 50 mg/kg and/or ethosuximide 100 mg/kg i.p. 30 min before PTZ 87 mg/kg s.c.) was 1 and the “Cases of death (within 30 min)” value [2, 4] was 0. For the same molecule, the “Cases of death (within 30 min)” value [2, 5] was 1, the “Latency to the first gen. Clonus (% control)” value (shortened to “Latency … (% control)”) ([2]; series AFC-5128 25 mg/kg and/or ethosuximide 100 mg/kg i.p. 30 min before PTZ, control 4.53 ± 0.56 min) was 312.6 ± 65.8% and the “Latency to the first gen. Clonus” value [2, 6] was 14.16 ± 2.98 min. The “Latency … (% control)” value ([2]; series AFC-5128 50 mg/kg and/or ethosuximide 100 mg/kg i.p. 30 min before PTZ, control 10.83 ± 2.67 min) was 200.6 ± 27.0%, the “Latency to the first gen. Clonus” value [2, 7] was 21.72 ± 3.03 min and the “Latency … (% control)” value [2, 8] was 244.3 ± 75.3%. The “Latency to the first gen. Clonus” value [2, 9] was 11.58 ± 3.57 min, the “Latency … (% control)” value [2, 10] was 209.0 ± 51.1% and the “Latency to the first gen. Clonus” value [2, 11] was 12.83 ± 3.14 min. For the same molecule, the “# of mice/ with seizures” value [2, 6] was 12/8^+, the “# of mice/ with seizures” value [2, 7] was 12/7^+ and the “# of mice/ with seizures” value [2, 9] was 12/8^+. The “# of mice/ with seizures” value [2, 11] was 12/8^+.
With O=C(NCC1(N2CCN(c3ccccc3)CC2)CCOCC1)c1cccnc1Sc1ccccc1 [JNJ-47965567, N-[[4-(4-phenyl-piperazin-1-yl)tetrahydro-2H-pyran-4-yl]-methyl]-2-(phenyl-thio) nicotinamide] the “effect on mean seizure stage in fully kindled rats” value [1] was “tendency to reduce the mean seizure stage”, the “mean seizure stage, post-drug” value ([1]; fully kindled rats, 15 mg/kg s.c., pre-drug (vehicle) value 4.4, significant) was 2.9 and the “# of mice/ with seizure” value [2, 12] was 12/12. For the same molecule, the “# of mice/ with seizure” value [2, 13] was 12/10, the “Cases of death (within 30 min)” value [2, 12] was 2 and the “Cases of death (within 30 min)” value [2, 13] was 1. The “Cases of death (within 30 min)” value [2, 4] was 3, the “Cases of death (within 30 min)” value [2, 5] was 1 and the “Latency to the first gen. Clonus” value [2, 12] was 7.31 ± 2.19 min. For the same molecule, the “Latency … (% of control)” value ([2]; 15 mg/kg i.p. 30 min before PTZ 87 mg/kg s.c., vehicle 6.94 ± 1.31 min) was 105.3 ± 31.6%, the “Latency to the first gen. Clonus” value [2, 13] was 13.66 ± 2.94 min and the “Latency … (% of control)” value ([2]; 30 mg/kg i.p. 30 min before PTZ 87 mg/kg s.c., vehicle 7.13 ± 1.49 min) was 191.6 ± 41.2%. The “latency to the onset of the first clonic seizures at higher doses” value [2] was “tended to increase the latency”, the “Latency … (% control)” value [2, 8] was 109.4 ± 25.1% and the “Latency to the first gen. Clonus” value [2, 9] was 5.19 ± 1.19 min. The “Latency … (% control)” value [2, 10] was 153.4 ± 47.1%, the “Latency to the first gen. Clonus” value [2, 11] was 9.42 ± 2.89 min and the “# of mice/ with seizures” value [2, 9] was 12/12. For the same molecule, the “# of mice/ with seizures” value [2, 11] was 12/10.
